Reference: patent US4175081A, “5-Substituted thiadiazole ureas” (priority 1977, dated 1979)

Key:
[1] = system: Crabgrass (CG); test: Pre-emergence herbicide test; assay type: in vivo, Digitaria sanquinalis; conditions: Digitaria sanguinalis, pre-emergence, 336 h; 8 lb/acre; two weeks after treatment
Summary of the method: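 Crabgrass (Digitaria sanquinalis) was surface seeded in 3' plastic pots of potting soil, covered with screened soil, and watered by sub-irrigation in greenhouse trays. Pots were seeded one day before spraying in a hood with a moving belt and fixed nozzle. Plants stayed in the greenhouse on sub-irrigation, and pre-emergence control was rated visually two weeks after treatment.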

[2] = system: Johnson grass (JG); test: Pre-emergence herbicide test; assay type: in vivo, Sorgum helepense; conditions: Sorghum halepense, 336 h, 8 lb/acre, two weeks after treatment
Summary of the method: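 Visual injury or control rating two weeks post-treatment, after pre-emergence spray of 8 or 4 lbs active per acre (38 gal/acre) onto pots sown the previous day. Greenhouse watering by sub-irrigation only.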

[3] = system: Barnyard grass (BG); test: Pre-emergence herbicide test; assay type: in vivo; conditions: Echinochloa crus-galli, 336 h, 8 lb/acre, two weeks after treatment
Summary of the method: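 Greenhouse pre-emergence spray test: pots seeded one day before treatment received compound at rates of 8 or 4 lb/acre (38 gal/acre). Visual injury/control scores for Echinochloa crus-galli taken at two weeks, with watering by sub-irrigation only.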

[4] = system: Amaranth pigweed (PW); test: Pre-emergence herbicide test; assay type: in vivo, Amaranthus retroflexus; conditions: 336 h, 8 lb/acre, two weeks after treatment
Summary of the method: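 Visual injury or control ratings were made at two weeks on pre-emergence pots, sub-irrigated in the greenhouse. Seeds were sown a day before a hood spray delivering 8 lbs/acre (or 4 lbs/acre) of compound in 38 gallons per acre.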

[5] = system: Turnip (TP); test: Pre-emergence herbicide test; assay type: in vivo, Brassica sp.; conditions: Brassica rapa, pre-emergence, 336 h; 8 lb/acre; two weeks after treatment
Summary of the method: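 In this pre-emergence greenhouse test, turnip was seeded on the surface of potting soil in 3' plastic pots, lightly covered with screened soil, and watered from below. One day later the pots were sprayed in a belt-fed spray hood. Watering continued only by sub-irrigation, and percent control was visually scored two weeks after treatment.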

[6] = system: Cotton (CT); test: Pre-emergence herbicide test; assay type: in vivo, Gossypium hirsutum var. DPL smooth leaf; conditions: Gossypium hirsutum, 336 h, 8 lb/acre, two weeks after treatment
Summary of the method: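 Visual injury/control ratings were taken at two weeks post-spray. Pots seeded a day earlier received compound pre-emergence at 8 lbs/acre, or 4 lbs/acre, in a 38 gallon/acre spray volume, and were then held in the greenhouse, watered only from below.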

[7] = system: Corn (CN); test: Pre-emergence herbicide test; assay type: in vivo; conditions: Zea mays, 336 h, 8 lb/acre, two weeks after treatment
Summary of the method: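 Visual injury/control ratings were made 2 weeks post-spray on corn pots seeded (4 seeds, seed-diameter depth) the day before treatment. Application was a belt-hood spray of 38 gal/acre delivering 8 lbs active per acre, with a 4 lbs/acre rate also formulated. Watering was by sub-irrigation throughout.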

[8] = system: Bean (BN); test: Pre-emergence herbicide test; assay type: in vivo, Phaseolus vulgaris var. Black Valentine; conditions: Phaseolus vulgaris, 336 h, 8 lb/acre, two weeks after treatment
Summary of the method: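 Visual injury/control ratings were taken two weeks post-spray on sub-irrigated Phaseolus vulgaris var. Black Valentine. Pots were sown a day before treatment. Pre-emergence spray delivered 8 lbs actual compound per acre (or 4 lbs/acre) at 38 gallons per acre.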

[9] = system: Crabgrass (CG); test: Post-emergence herbicide test; assay type: in vivo, Digitaria sanquinalis; conditions: Digitaria sanguinalis, post-emergence, 336 h, two weeks after treatment; for pest or weed control at 8966.8 g/ha: 8 lb/acre
Summary of the method: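 Crabgrass (Digitaria sanquinalis) was surface seeded individually in 3' plastic pots of potting soil, covered with screened soil, and watered by sub-irrigation in greenhouse trays. Planting was staggered so seedlings reached the target stage together. Post-emergence sprays were applied in a hood with a removable belt and fixed nozzle, and control was visually rated two weeks after treatment.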

[10] = system: Yellow foxtail grass (YF); test: Post-emergence herbicide test; assay type: in vivo, Setaria glauca; conditions: Setaria, 336 h, two weeks after treatment; for pest or weed control at 8966.8 g/ha: 8 lb/acre
Experimental: (§1) Yellow foxtail grass (YF)--Setaria glauca
(§2) All crop and weed species were planted individually in 3' plastic pots containing potting soil. Four seeds each of corn, cotton, and snapbeans were seeded to a depth equal to the diameter of the seed. All other species were surface seeded and sprinkled with screened soil in an amount sufficient to cover the seed. Immediately after planting, all pots were watered by sub-irrigation in greenhouse trays. Pots for the pre-emergence phase were seeded one day before treatment.
Planting dates for the post-emergence phase were varied so that all seedlings would reach the desired stage of development simultaneously. The proper stage of seedling development for treatment in the post-emergence phase is as follows:
(§3) Compounds were tested at rates of application equivalent to 8 lbs. of actual compound per acre in a spray volume of 38 gallons per acre. Spray hood constants required to deliver the above volume are as follows:
(§4) Formulations for spray applications were prepared in 50 ml volumes with the following three components:
(§5) Formulations for the 4 lbs/acre rate were prepared by adjusting the amount of active ingredient accordingly.
(§6) Spray applications were made in a hood containing a removable belt and fixed spray nozzle. For passage through the spray hood, one pot of each specie (pre-emergence phase) was placed on the rear half of the flat. Treatments were removed to the greenhouse after spraying. Watering during the observation period was done only by sub-irrigation.
(§7) Two weeks after treatment, pre- and post-emergence injury or control was visually rated, and the results were as shown in the following tables. Pre-emergence data are provided in TABLE III and post-emergence data are provided in TABLE IV, for compounds having the formula illustrated in TABLE I. Correspondingly, pre-emergence and post-emergence data, respectively, are set forth in TABLES V AND VI, for compounds having the formula illustrated in TABLE II.

[11] = system: Johnson grass (JG); test: Post-emergence herbicide test; assay type: in vivo, Sorgum helepense; conditions: Sorghum halepense, 336 h, two weeks after treatment; for pest or weed control at 8966.8 g/ha: 8 lb/acre
Summary of the method: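 Visual injury or control scores taken 2 weeks after a post-emergence spray of pot-grown plants. Application was 8 lbs/acre (or 4 lbs/acre) in 38 gal/acre. Plants were held in the greenhouse with sub-irrigation only.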

[12] = system: Barnyard grass (BG); test: Post-emergence herbicide test; assay type: in vivo; conditions: Echinochloa crus-galli, 336 h, two weeks after treatment; for pest or weed control at 8966.8 g/ha: 8 lb/acre
Summary of the method: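 Greenhouse pot-grown barnyard grass seedlings sprayed post-emergence at 8 lbs active compound per acre (some at 4 lbs/acre) in 38 gallons per acre, then sub-irrigated. Injury or control rated visually two weeks after treatment.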

[13] = system: Amaranth pigweed (PW); test: Post-emergence herbicide test; assay type: in vivo, Amaranthus retroflexus; conditions: 336 h, two weeks after treatment; for pest or weed control at 8966.8 g/ha: 8 lb/acre
Summary of the method: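 Visual injury or control ratings were made two weeks after spraying, with greenhouse watering by sub-irrigation only. Treatment was post-emergence, when pigweed seedlings had 1 or 2 true leaves, at 8 lbs active compound per acre (4 lbs/acre formulations also made) in a 38 gallons-per-acre spray volume.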

[14] = system: Turnip (TP); test: Post-emergence herbicide test; assay type: in vivo, Brassica sp.; conditions: Brassica rapa, post-emergence, 336 h, two weeks after treatment; for pest or weed control at 8966.8 g/ha: 8 lb/acre
Summary of the method: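 A greenhouse post-emergence herbicide test on turnip. Seeds were sown on the surface of potting soil in 3' plastic pots, lightly covered with screened soil and watered from below. Planting was timed so seedlings had 1 or 2 true leaves above the cotyledons at spraying, done in a hood with a fixed nozzle. Control or injury was scored by eye after two weeks.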

[15] = system: Cotton (CT); test: Post-emergence herbicide test; assay type: in vivo, Gossypium hirsutum var. DPL smooth leaf; conditions: Gossypium hirsutum, post-emergence, 336 h, two weeks after treatment; for pest or weed control at 8966.8 g/ha: 8 lb/acre
Summary of the method: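 This greenhouse post-emergence test measured how well spray treatments controlled cotton. Seedlings of Gossypium hirsutum var. DPL smooth leaf, with expanded cotyledons and a first true leaf 1' in length, were sprayed with 50 ml formulations in a belt-fed spray hood. They were then returned to the greenhouse and watered only by sub-irrigation. Injury was scored visually as % control after two weeks.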

[16] = system: Corn (CN); test: Post-emergence herbicide test; assay type: in vivo; conditions: Zea mays, 336 h, two weeks after treatment; for pest or weed control at 8966.8 g/ha: 8 lb/acre
Summary of the method: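 Greenhouse seedlings grown in potting soil and sprayed post-emergence at 8 lbs compound/acre (formulations also made for 4 lbs/acre) in 38 gallons/acre spray volume. Watering by sub-irrigation only. Injury or control rated visually two weeks after treatment.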

[17] = system: Bean (BN); test: Post-emergence herbicide test; assay type: in vivo, Phaseolus vulgaris var. Black Valentine; conditions: Phaseolus vulgaris, post-emergence, 336 h, two weeks after treatment; for pest or weed control at 8966.8 g/ha: 8 lb/acre
Summary of the method: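 Bean seedlings (Phaseolus vulgaris var. Black Valentine) were grown in potting soil in 3' pots until the primary leaves expanded. They were then sprayed under a hood with a removable belt and fixed nozzle, using 50 ml formulations. Afterward they were returned to the greenhouse and watered only by sub-irrigation. Percent control was judged visually two weeks after treatment.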

[18] = system: Yellow foxtail grass (YF); test: Pre-emergence herbicide test; assay type: in vivo, Setaria glauca; conditions: Setaria, 336 h, 8 lb/acre, two weeks after treatment
Experimental: as §1, §2, §3, §4, §5, §6, §7

SMILES	pest or weed control at 8966.8 g/ha [1] [%]	pest or weed control at 8966.8 g/ha [2] [%]	pest or weed control at 8966.8 g/ha [3] [%]	pest or weed control at 8966.8 g/ha [4] [%]	pest or weed control at 8966.8 g/ha [5] [%]	pest or weed control at 8966.8 g/ha [6] [%]	pest or weed control at 8966.8 g/ha [7] [%]	pest or weed control at 8966.8 g/ha [8] [%]	pest or weed control at 8966.8 g/ha [9] [%]	pest or weed control at 8966.8 g/ha [10] [%]	pest or weed control at 8966.8 g/ha [11] [%]	pest or weed control at 8966.8 g/ha [12] [%]	pest or weed control at 8966.8 g/ha [13] [%]	pest or weed control at 8966.8 g/ha [14] [%]	pest or weed control at 8966.8 g/ha [15] [%]	pest or weed control at 8966.8 g/ha [16] [%]	pest or weed control at 8966.8 g/ha [17] [%]	pest or weed control at 8966.8 g/ha [18] [%]	further results
CCc1nnc(NC(=O)NC)s1 [Example 3, 1-Methyl-3-[5-Ethyl-2-(1,3,4-Thiadiazolyl)] Urea]	10	20	10	70	70	50	100	90	20	20	20	20	100	100	90	20	60		
CCCNC(=O)Nc1nnc(C(F)(F)F)s1 [Example 10]	20	20	10		10	80	50	80	50	20	30	40	100	60	60	40	50	20	
CC(C)NC(=O)Nc1nnc(C(F)(F)F)s1 [Example 11]	20	30	10		10	80	80	30	50	20	30	40	100	60	60	40	50	10	
CNC(=O)Nc1nnc(C)s1 [Example 18]	10	10	20	10	50	30	30	50	20	20	20	20	40	40	50	20	50		
C=C(C)CSc1nnc(NC(=O)NC)s1 [Example 49]																			pest or weed control at 4483.4 g/ha ([9]; 4 lb/acre): 80%; pest or weed control at 4483.4 g/ha ([10]; 4 lb/acre): 40%; pest or weed control at 4483.4 g/ha ([11]; 4 lb/acre): 40%; pest or weed control at 4483.4 g/ha ([12]; 4 lb/acre): 40%; pest or weed control at 2241.7 g/ha ([13]; 2 lb/acre): 100%; pest or weed control at 2241.7 g/ha ([14]; 2 lb/acre): 70%; pest or weed control at 4483.4 g/ha ([14]; 4 lb/acre): 90%; pest or weed control at 4483.4 g/ha ([15]; 4 lb/acre): 100%; pest or weed control at 4483.4 g/ha ([16]; 4 lb/acre): 40%; pest or weed control at 4483.4 g/ha ([17]; 4 lb/acre): 50%
CNC(=O)Nc1nnc(-c2cccc(Cl)c2)s1 [Example 72]	0	0	0		0	80	30	100	30	30	20	40		40	30	0	20		
